Consider one substance from patent EP4729530A1, “NOVEL PEPTIDE AND USE THEREOF” (Gemvax & Kael Co., Ltd., priority 2023, dated 2024).

In series [1] the test system is 4R Tau^P301L-BiFC mouse. Briefly: Novel object recognition experiment in 4R tauopathy mouse model. Format: in vivo. The settings on record: GV2002 2 mg/kg subcutaneous, 3 times/week, 21 weeks. The method, then: (§1) In vivo experiments were performed on the 4R tauopathy mouse groups shown in FIG. 4 according to the schedule shown in FIG. 5 and the outline in Table 3 below.
Novel object recognition experiments were conducted on a 4R tauopathy mouse model administered GV2002 for five months, from 7.5 to 12.5 months of age, to evaluate the efficacy of GV2002 in alleviating impairment in cognitive ability.
Mice that underwent the experiment from days 1 to 6 according to the experimental method in Example 4-2 were subjected to a novel object recognition experiment on days 7 and 8. […] On day 8, one of the two objects was replaced with a novel object, and mice were placed in the enclosure and observed for 10 minutes, during which the time spent exploring the novel object was measured. Prior to the experiments on days 7 and 8, mice were allowed one hour to acclimate to the testing environment. The illumination level was maintained at a constant level throughout the experiment. The recorded data were analyzed using two-way ANOVA with Sidak's multiple comparisons test.

Series [2] relates to total tau (Tau5) and phosphorylated tau (pS199, pS396). Briefly: Brain lysate analysis by tau immunoblot (soluble and insoluble fractions). It is filed as in vivo, mouse. The conditions noted are these: GV2002 2 mg/kg subcutaneous, 3 times/week, 21 weeks. The procedure:
as §1
Brain lysates from a 4R tauopathy mouse model administered GV2002 for five months, from 7.5 to 12.5 months of age, were obtained. Soluble and insoluble fraction samples were subjected to immunoblotting using antibodies against total tau (Tau5) and phosphorylated tau (pS199, pS396), and the levels of total and phosphorylated tau were quantitatively analyzed.
Mouse models were anesthetized, saline was intracardially perfused, and blood was removed using a perfusion pump device. The brain was then removed and weighed. 1 mL of RIPA buffer (containing protease and phosphatase inhibitor cocktails) was added to the extracted brain and homogenized.
The homogenized brain lysates were transferred to EP tubes and incubated on an orbital shaker at 4°C for 2 hours. After centrifugation at 13,000 rpm for 20 minutes at 4°C, the supernatant (soluble fraction) was collected in a new EP tube and stored at -80°C.
To prepare samples for immunoblotting, the concentrations of the fractionated samples were quantified using the Bradford protein quantification assay. RIPA buffer and 4X SDS Laemmli sample buffer (containing 2.5% β-mercaptoethanol for reducing conditions) were added to each sample to adjust the final protein concentration to 2 mg/mL. The samples were then boiled at 97°C for 5 minutes.
Meanwhile, to obtain the insoluble fraction, the remaining pellet after supernatant removal was resuspended in RIPA buffer containing 1 M sucrose (1 mL) and DNase I (1 mg/mL). […]
20 µg of each brain lysate sample of soluble and insoluble fractions were loaded onto a 10% SDS-PAGE gel (SDS-PAGE running buffer: 1X Tris/Glycine/SDS buffer in 3' D.W.), and electrophoresis was performed at 80 V for 30 minutes followed by 90 V for 1 hour. […] Protein bands of the membrane were detected using ChemiDoc with ECL solution, which is HRP substrate, and band intensities were quantified using ImageJ software (NIH).

A short description of series [3]: Pharmacokinetic profile in rats (intravenous and subcutaneous administration). It is filed as in vivo. The settings on record: Sprague Dawley rats. The procedure: To determine the pharmacokinetic profile of GV2002 prepared in Example 1, plasma was collected from rats administered with GV2002. The collected plasma was pretreated by protein precipitation using nine times the volume of methanol containing 0.1% formic acid, followed by centrifugation at 16,100 g for 10 minutes.
GV2002 was administered intravenously (IV) to three Sprague Dawley rats per group. Blood samples were collected at 0.033, 0.083, 0.17, 0.25, 0.5, 1, and 2 hours after administration. The collected blood samples were centrifuged to separate plasma, pretreated, and analyzed using LC-MS. Pharmacokinetic parameters were calculated using the non-compartmental analysis model of the Phoenix WinNonlin (Pharsight, ver. 6.4, USA) program.
GV2002 was administered subcutaneously (SC) to three Sprague Dawley rats per group. Blood samples were collected at 0.033, 0.083, 0.17, 0.25, 0.5, 1, and 2 hours after administration. The collected blood samples were centrifuged to separate plasma, pretreated, and analyzed using LC-MS. Pharmacokinetic parameters were calculated using the non-compartmental analysis model of Phoenix WinNonlin (Pharsight ver. 6.4, USA).

Series [4] deals with 4R Tau^P301L-BiFC mouse. As to the kind of experiment: Rota-rod experiment in 4R tauopathy mouse model. Format: in vivo. The conditions noted are these: 3 times/week, 21 weeks. The procedure:
as §1
Rota-rod experiments were conducted on mice with 4R tauopathy treated with GV2002 for five months, from 7.5 to 12.5 months of age, to evaluate the efficacy of GV2002 in alleviating impairment in motor ability.
On day 1, acclimation training was conducted, and on day 2, behavioral testing was conducted. Prior to acclimation training and behavioral testing, mice were allowed to acclimate to the testing environment for one hour. During acclimation training, mice walked on a […] at a speed ranging from 5 to 25 rpm for 300 seconds, and any mouse that lost its balance and fell to the floor was allowed to walk again. […] The measured values were analyzed using a two-way ANOVA with Dunnett's multiple comparisons test.

[5] abbreviates: soluble fraction of brain lysate.

Regarding Ac-EARPALLTSRLRFIPK-NH2 [GV2002], the “time spent exploring the novel object compared to the time spent exploring the learned object” value in series [1] is “significant increase”. Moreover, the “level of insoluble tau, reduced to (compared to the vehicle-administered group)” value in series [2] (insoluble fraction of brain lysate, total tau (Tau5)) was 57%. In series [2] (setting [5]), the “phosphorylated tau pS199, reduced to (compared to the vehicle-administered group)” value turned out to be 66% and the “phosphorylated tau pS396, reduced to (compared to the vehicle-administered group)” value is recorded as 56%. In series [3] (rat, plasma, intravenous (IV), non-compartmental analysis), this substance yielded an AUC(0-t) of 438 ng·h/mL. Besides, in series [3] (subcutaneous (SC)), the “in vivo persistence after subcutaneous administration” value was “remains in a stable state in vivo without degradation and persists for a long period of time”. Moreover, the “motor ability (Rota-rod) compared to the reference compound LMTM-administered group” value in series [4] (GV2002 2 mg/kg subcutaneous vs LMTM 15 mg/kg oral) is given as “relatively enhanced motor ability”. For the same substance, the “motor ability (Rota-rod, time until fall) compared to the vehicle-administered group” value in series [4] (GV2002 2 mg/kg subcutaneous, 7.5 to 12.5 months of age) is “significantly improved motor ability”.
